US20110113495A1, “SCREENING METHOD FOR AGENTS SUITABLE FOR PROPHYLAXIS AND THERAPY OF ALZHEIMER'S DISEASE (AD)” (priority 2008, published 2011)
Entries after “also recorded” stand apart in the source; their conditions may differ.

Assays:
[1] = Size exclusion chromatography of freshly dissolved Aβ1-42 peptides (oligomer size distribution); format: physicochemical; details: freshly dissolved peptide 1 mg/ml, Superose 12 column, 1×PBS
Method: In order to discriminate the various oligomeric forms of Aβ wildtype and mutant peptides, a size exclusion chromatography was performed. Therefore, a Superose 12 column (Amersham Bioscience) was equilibrated with 1×PBS (137 mM NaCl, 2.7 mM KCl, 10 mM Na2HPO4, 2 mM KH2PO4) under conditions recommended by the manufacturer. Thereafter 1 mg peptide was monomerized with 50 μl concentrated formic acid and evaporated. Peptides were solubilized in H2O containing 0.125% NH3 to a final concentration of 1 mg/ml.
A volume of 500 μl was centrifuged at maximal speed for 10 minutes and loaded on the column with a flow rate of 0.5 ml/min. For determination of the peptide concentration, fractions were tested with Bradford-, BCA-assay and dot blot analysis. The collected fractions were immediately applied for further analysis.
In this study it was investigated to what extent the GxxxG motif effects the aggregation of Aβ1-42 peptides. Aβ1-42 peptides and the oligomers were separated by use of SEC.

[2] = test system: SH-SY5Y cells (human neuroblastoma cells); experiment: Toxicity test (MTT) with human neuroblastoma cells; format: cell-based; details: 10 μM peptide or SEC fractions, 12 h
Method: SH—SY5Y cells were routinely cultured in DMEM/Ham'sF12 medium (PAA) supplemented with 10% (v/v) bovine calf serum, 2 mM glutamine, 0.1 mM non-essential amino acids and 0.5 mM sodium pyruvate in a 5% CO2 humidified atmosphere at 37° C.
Cells were plated at a density of 1.000 cells per well in 100 μl of fresh medium on 96-well plates. After 48 h medium was replaced by DMEM/Ham's F12 with 100 Uml^−1 penicillin and 10 μg streptomycin including 10 μM peptide, freshly dissolved in H2O containing 0.125% NH3 or fractions received by size exclusion chromatography. Probe and control were incubated for 12 h. Cell mediated reduction of 3-(4,5-dimethylthiazol-2-yl)-2,5-diphenyltetrazolium bromide (MTT) was used to monitor Aβ toxicity by addition of 10 μl of a 5 mgml^−1 MTT stock solution and incubation for further 1-2 h. Before measuring the absorbance of blue formazan at 562 nm using an automatic micro plate reader, cells were lysed with 50 μl DMSO for 10 minutes at room temperature.
The toxic effects of various oligomers on human neuroblastoma cells was determined by use of the MTT test allowing to quantify the toxicity.

[3] = test system: primary hippocampal rat neurons; experiment: Toxicity test (MultiTox-Fluor) with primary hippocampal rat neurons; format: cell-based; details: normalized peptide concentration, 48 h
Method: Hippocampi from P0-P1 Wistar rat pups were used for primary neuronal dissociated cultures. Tissue was dissected in HBSS containing Ca^2+ and Mg^2+ and incubated with an enzyme solution containing 1 mM CaCl2, 0.5 mM EDTA Ph 8.0, 2 mg/ml Cystein and 200-250 units papain (Worthington) in BME for 60 min at 37° C. Supernatant was removed and cells were incubated in inactivation solution (2.5 mg/ml BSA, 2.5 mg/ml Trypsin inhibitor (both Sigma) and 10% FCS in BME) for 5 min at. RT. Tissue clumps were dissociated by repeated passage through 1 ml pipettes. Cells were centrifuged for 10 min at 12000 rpm, 4° C. and resuspended in Neurobasal A medium supplemented with 2% B27, 2 mM Glutamax and 0.2% Penicillin/Streptomycin (all Gibco). Neurons were cultured on glia cell feeder layers in 96 well plates with 5×10^3 cells in 100 μl medium. For feeder layer cultures rat P0-P1 cortices were prepared as described above and cultured at a density of 1×10^6 cells in a T75 flask for at least one week in BME medium supplemented with 10% FCS, 5 mM glucose, 1 mM Glutamax, 10 mM Hepes, 2.5 μg/ml insulin, 0.2% Penicillin/Streptomycin. Cells were trypsinized and 2×10^3 cells per well were seeded in 96 wells plates four days before neurons were added.
After ten days of incubation neuronal cultures were treated with Aβ1-42 freshly dissolved in H2O or with SEC fractions for another 48 h. Neuronal viability was detected by using MultiTox-Fluor Multiplex Cytotxicity assay (Promega) as recommended by the producer.
Cells treated with buffer only were set as non-toxic.

[4] = test system: acute hippocampal rat brain sections or slices (area CA1 fEPSPs); experiment: Long term potentiation (LTP) of acute hippocampal rat brain slices; details: slices incubated with 500 nM peptide 20 min prior to tetanisation
Method: Hippocampal slices were prepared from 3-6 week old Wistar rats. Rats were decapitated under ether anesthesia. The brain was removed quickly and sectioned into 300 μm thick slices using a vibroslicer (Leica). The slices were maintained at room temperature in a holding chamber containing oxygenated artificial cerebrospinal fluid (ACSF; 129 mM NaCl, 1 mM NaH2PO4, 10 mM Glucose, 1.8 mM MgSO4, 1.6 mM CaCl2, 3 mM KCl, NaHCO3 21 mM). (Ringer: 119 mM NaCl, 1 mM NaH2PO4, 10 mM Glucose, 1.3 mM MgSO4, 2.5 mM CaCl2, 2.5 mM KCl, NaHCO3 26 mM) Ph 7.2-7.4 Osmolarität 0.28-0.31 Osmol/kg.
After at least 1 h equilibration, slices were transferred into submerged recording chamber and continuously perfuse with room temperature oxygenated ACSF at 3 ml/min throughout the experiments. […] Peptide was not washed during the experiment.
Field excitatory postsynaptic potentials (fEPSPs) were recorded of stratum radiatum area CA1 evoked by Schaffer collateral stimulation with ACSF filled electrodes. Two independent pathways were measured whereas two stimulating electrodes lay parallel to each other.
Baseline responses were collected using test pulses that yield 30-40% of the maximal fEPSP slope. LTP was induced by Theta brust stimulation (TBS) of one of the two pathways. The inter-theta burst stimulation interval was 20 sec and four TBSs were applied to induce LTP. TBS consisted of 10 bursts delivered at 5 Hz. Each burst consisted of four pulses delivered at 100 Hz with a pulse-duration of 0.2 msec. (Evers M., Salmen B., Schachner M., 2002 J. Neuroscience)
The amount of LTP was described as percent changes of (EPSP slopes after TBS normalized to baseline values with an additional subtraction of the second, unstimulated pathway. Slopes were analysed using IGOR program.
In order to assay whether Aβ oligomers show an effect on learning and commemoration LTP (long term potentiation) of acute hippocampal sections of rat brains was determined. Several recent publications report on the inhibition of LTP by Aβ1-42. This effect can be equated with cognitive deficiencies observed for AD patients. In order to further improve these performance tests and to minimize possible side effects of the peptides on the general network plasticity of the sections, two independent neuronal pathways were assayed. Whereas the first pathway was stimulated for inducing LTP, the second one was assayed unstimulated as a control. It could be confirmed that Aβ peptides inhibit LTP.

Row | Substance | oligomer size distribution / aggregation by SEC [1] | oligomer size distribution / aggregation by SEC ([1]; listed as Aβ1-42) | toxic effect (MTT) [2] | toxic effect (Multi-tox) [3] | LTP induction after theta burst stimulation [4] | oligomer size distribution / aggregation by SEC ([1]; listed as G33A) | LTP induction after theta burst stimulation ([4]; listed as tetramers of the Aβ1-42G33A peptide)
1 | Aβ1-42 wt: wild type amyloid beta 1-42 peptide containing the G29xxxG33 motif [reference compound] | immediately aggregates to 4- and 6-mers | 4- to 6mers | strong toxic effect | strong toxic effect | no LTP is induced |  | 
2 | Aβ1-42G29A: Aβ1-42 peptide with mutation at position 29 (G to A) |  |  | strong toxic effect | strong toxic effect |  |  | 
3 | Aβ1-42G331: Aβ1-42 peptide with glycine at position 33 replaced by isoleucine |  |  |  |  | induced LTP shows the same value as the control; also recorded: LTP could be induced |  | 
4 | Aβ1-42 tetramers: tetramers (SEC fraction) of wild type Aβ1-42 peptide [reference compound] |  |  | highest toxicity | highest toxicity | cause a measurable loss of cognitive performance |  | 
5 | Aβ1-42G33A: Aβ1-42 peptide with glycine at position 33 replaced by alanine | shift to oligomers with a higher MW |  |  |  |  | minor amounts of tetramers are still detectable | 
6 | Aβ1-42G29/33A: Aβ1-42 double mutant G29/33A | Most of the oligomers have a low MW, but large amounts of oligomers having a higher MW are already visible |  | only weak toxicity | weak toxicity |  |  | 
7 | Aβ1-42G33A tetramers: tetramers of the Aβ1-42G33A peptide |  |  | no toxic effects were observed |  | correspond to the results obtained for Aβ1-42G331 |  | LTP could be induced
